According to patent US9884063B2, “Amido-substituted azole compounds” (Bayer Pharma Aktiengesellschaft, priority 2014, dated 2018):

What was measured:
TNKS2 = target: T1, TNKS2 (Homo sapiens, UniProt Q9H2K2); experiment: Modified TNKS2 Assay 2 (auto-parsylation, [3H]-NAD+ SPA); assay type: biochemical; conditions: 6 nM TNKS2, 96 well
T1 sequence (Q9H2K2 1-1166): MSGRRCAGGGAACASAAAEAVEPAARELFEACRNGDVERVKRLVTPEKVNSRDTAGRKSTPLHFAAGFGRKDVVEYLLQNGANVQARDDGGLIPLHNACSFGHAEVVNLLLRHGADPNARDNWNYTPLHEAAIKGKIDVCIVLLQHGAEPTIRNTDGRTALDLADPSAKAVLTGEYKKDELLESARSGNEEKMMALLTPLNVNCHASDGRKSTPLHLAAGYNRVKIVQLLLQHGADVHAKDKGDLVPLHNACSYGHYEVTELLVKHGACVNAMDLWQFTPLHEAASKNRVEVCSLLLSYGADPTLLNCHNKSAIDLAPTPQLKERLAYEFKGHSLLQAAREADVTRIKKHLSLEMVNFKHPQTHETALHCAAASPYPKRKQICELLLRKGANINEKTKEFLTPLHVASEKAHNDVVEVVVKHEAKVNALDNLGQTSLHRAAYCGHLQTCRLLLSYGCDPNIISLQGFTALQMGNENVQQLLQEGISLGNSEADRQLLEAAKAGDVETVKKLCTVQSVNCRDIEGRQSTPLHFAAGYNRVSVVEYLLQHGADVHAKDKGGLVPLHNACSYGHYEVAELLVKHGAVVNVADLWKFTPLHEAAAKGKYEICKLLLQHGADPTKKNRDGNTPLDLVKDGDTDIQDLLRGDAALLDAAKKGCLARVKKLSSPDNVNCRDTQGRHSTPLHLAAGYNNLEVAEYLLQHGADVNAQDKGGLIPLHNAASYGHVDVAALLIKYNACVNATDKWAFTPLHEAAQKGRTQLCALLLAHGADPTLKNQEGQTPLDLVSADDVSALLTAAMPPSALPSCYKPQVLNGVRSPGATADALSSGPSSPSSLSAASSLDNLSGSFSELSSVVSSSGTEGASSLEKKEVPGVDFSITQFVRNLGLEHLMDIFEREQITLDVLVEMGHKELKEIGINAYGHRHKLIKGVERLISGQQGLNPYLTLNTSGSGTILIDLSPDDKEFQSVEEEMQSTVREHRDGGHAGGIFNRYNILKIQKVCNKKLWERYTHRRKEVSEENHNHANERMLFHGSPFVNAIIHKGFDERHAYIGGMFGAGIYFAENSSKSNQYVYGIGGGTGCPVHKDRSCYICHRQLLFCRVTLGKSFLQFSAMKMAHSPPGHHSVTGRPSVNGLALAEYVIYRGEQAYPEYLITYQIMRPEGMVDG

[1] = test system: wildtype Wnt signaling cascade; experiment: HEK293 TOP Assay (Super TopFlash luciferase reporter, Wnt-3a stimulated); assay type: cell-based; conditions: Homo sapiens, HEK293, 16 h, HEK293 TOP reporter cell line, Wnt-3a at EC50, 16 hours incubation, compound dilution series 50 μM to 15 nM
How it was run: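 HEK293 cells stably carrying Super TopFlash (TOP) or FOP reporter, stimulated with recombinant human Wnt-3a (2500–5 ng/ml, two-fold steps). Both lines incubated in parallel with compound from 50 μM to 15 nM (3.16-fold) in CAFTY buffer pH 7.4 with 2 mM Ca2+ and 0.01% BSA; selectivity judged TOP vs FOP.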

SMILES | IC50 (TNKS2) | IC50 [1]
CNC(=O)c1nc[nH]c1C(=O)Nc1ccc(NC(=O)c2ccc(F)c(Cl)c2)cc1 [Example 340, N^5-{4-[(3-chloro-4-fluorobenzoyl)amino]phenyl}-N^4-methyl-1H-imidazole-4,5-dicarboxamide] | > 10 µM | 3.85 µM
CNC(=O)c1nc[nH]c1C(=O)Nc1ccc(NC(=O)c2c(C)cccc2Cl)cc1 [Example 343, N^5-{4-[(2-chloro-6-methylbenzoyl)amino]phenyl}-N^4-methyl-1H-imidazole-4,5-dicarboxamide] | 1.7 µM | 1.45 µM
CNC(=O)c1nc[nH]c1C(=O)Nc1ccc(NC(=O)c2ccc(C)c(Cl)c2)cc1 [Example 344, N^5-{4-[(3-chloro-4-methylbenzoyl)amino]phenyl}-N^4-methyl-1H-imidazole-4,5-dicarboxamide] | > 10 µM | 27 µM
CNC(=O)c1nc[nH]c1C(=O)Nc1ccc(NC(=O)c2cc(C#N)ccc2F)cc1 [Example 349, N^5-{4-[(5-cyano-2-fluorobenzoyl)amino]phenyl}-N^4-methyl-1H-imidazole-4,5-dicarboxamide] | 2.2 µM | 0.72 µM
CNC(=O)c1nc[nH]c1C(=O)Nc1ccc(NC(=O)c2cccc(Cl)n2)cc1 [Example 353, N^5-(4-{[(6-chloropyridin-2-yl)carbonyl]amino}phenyl)-N^4-methyl-1H-imidazole-4,5-dicarboxamide] | > 10 µM | 50 µM
CNC(=O)c1nc[nH]c1C(=O)Nc1ccc(NC(=O)c2ccc(F)c(Cl)c2F)cc1 [Example 359, N^5-{4-[(3-chloro-2,4-difluorobenzoyl)amino]phenyl}-N^4-methyl-1H-imidazole-4,5-dicarboxamide] | > 10 µM | 8.6 µM
CNC(=O)c1nc[nH]c1C(=O)Nc1ccc(NC(=O)c2cc(C)ccn2)cc1 [Example 363, N^4-methyl-N^5-(4-{[(4-methylpyridin-2-yl)carbonyl]amino}phenyl)-1H-imidazole-4,5-dicarboxamide] | > 10 µM | 50 µM
CNC(=O)c1nc[nH]c1C(=O)Nc1ccc(NC(=O)c2cc(F)ccc2OC)cc1 [Example 364, N^5-{4-[(5-fluoro-2-methoxybenzoyl)amino]phenyl}-N^4-methyl-1H-imidazole-4,5-dicarboxamide] | 7.9 µM | 50 µM
CNC(=O)c1nc[nH]c1C(=O)Nc1ccc(NC(=O)c2cncc(C)c2)cc1 [Example 366, N^4-methyl-N^5-(4-{[(5-methylpyridin-3-yl)carbonyl]amino}phenyl)-1H-imidazole-4,5-dicarboxamide] | > 10 µM | 50 µM
CNC(=O)c1nc[nH]c1C(=O)Nc1ccc(NC(=O)c2cccc(F)c2OC)cc1 [Example 367, N^5-{4-[(3-fluoro-2-methoxybenzoyl)amino]phenyl}-N^4-methyl-1H-imidazole-4,5-dicarboxamide] | > 10 µM | 12.4 µM
CNC(=O)c1nc[nH]c1C(=O)Nc1ccc(NC(=O)c2cccc(F)c2Cl)cc1 [Example 370, N^5-{4-[(2-chloro-3-fluorobenzoyl)amino]phenyl}-N^4-methyl-1H-imidazole-4,5-dicarboxamide] | 2.2 µM | 4.95 µM
CNC(=O)c1nc[nH]c1C(=O)Nc1ccc(NC(=O)c2nccnc2Cl)cc1 [Example 372, N^5-(4-{[(3-chloropyrazin-2-yl)carbonyl]amino}phenyl)-N^4-methyl-1H-imidazole-4,5-dicarboxamide] | 4.8 µM | 9.7 µM
CNC(=O)c1nc[nH]c1C(=O)Nc1ccc(NC(=O)c2c(F)ccc(F)c2Cl)cc1 [Example 374, N^5-{4-[(2-chloro-3,6-difluorobenzoyl)amino]phenyl}-N^4-methyl-1H-imidazole-4,5-dicarboxamide] | 1.3 µM | 1.8 µM
CNC(=O)c1nc[nH]c1C(=O)Nc1ccc(NC(=O)c2ccon2)cc1 [Example 376, N^4-methyl-N^5-{4-[(1,2-oxazol-3-ylcarbonyl)amino]phenyl}-1H-imidazole-4,5-dicarboxamide] | > 10 µM | 50 µM
O=C(Nc1ccc(NC(=O)c2[nH]cnc2C(=O)NCCc2ccccc2)cc1)c1ccc(F)cc1Cl [Example 384, N^5-{4-[(2-chloro-4-fluorobenzoyl)amino]phenyl}-N^4-(2-phenylethyl)-1H-imidazole-4,5-dicarboxamide] | 1.7 µM | 1.9 µM

More lines, in order of falling IC50 (TNKS2), values ahead:

IC50 (TNKS2) | IC50 [1] | SMILES
1.3 µM | 0.71 µM | CNC(=O)c1nc[nH]c1C(=O)Nc1ccc(NC(=O)c2cc(C(F)(F)F)ccc2Cl)cc1 [Example 352, N^5-(4-{[2-chloro-5-(trifluoromethyl)benzoyl]amino}phenyl)-N^4-methyl-1H-imidazole-4,5-dicarboxamide]
1.2 µM | 1.12 µM | CNC(=O)c1nc[nH]c1C(=O)Nc1ccc(NC(=O)c2c(C)cccc2F)cc1 [Example 375, N^5-{4-[(2-fluoro-6-methylbenzoyl)amino]phenyl}-N^4-methyl-1H-imidazole-4,5-dicarboxamide]
1 µM | 0.41 µM | CNC(=O)c1nc[nH]c1C(=O)Nc1ccc(NC(=O)c2cc(Br)ccc2Cl)cc1 [Example 313, N^5-{4-[(5-bromo-2-chlorobenzoyl)amino]phenyl}-N^4-methyl-1H-imidazole-4,5-dicarboxamide]
0.95 µM | 2.3 µM | CNC(=O)c1nc[nH]c1C(=O)Nc1ccc(NC(=O)c2ccc(C#N)cc2)cc1 [Example 322, N^5-{4-[(4-cyanobenzoyl)amino]phenyl}-N^4-methyl-1H-imidazole-4,5-dicarboxamide]
0.94 µM | 0.72 µM | CNC(=O)c1nc[nH]c1C(=O)Nc1ccc(NC(=O)c2ncccc2C)cc1 [Example 356, N^4-methyl-N^5-(4-{[(3-methylpyridin-2-yl)carbonyl]amino}phenyl)-1H-imidazole-4,5-dicarboxamide]
0.58 µM | 0.95 µM | CNC(=O)c1nc[nH]c1C(=O)Nc1ccc(NC(=O)c2ccc(Cl)cc2F)cc1 [Example 333, N^5-{4-[(4-chloro-2-fluorobenzoyl)amino]phenyl}-N^4-methyl-1H-imidazole-4,5-dicarboxamide]
0.54 µM | 0.8 µM | CNC(=O)c1nc[nH]c1C(=O)Nc1ccc(NC(=O)c2c(F)cc(F)cc2F)cc1 [Example 342, N^4-methyl-N^5-{4-[(2,4,6-trifluorobenzoyl)amino]phenyl}-1H-imidazole-4,5-dicarboxamide]
0.33 µM | 0.95 µM | CNC(=O)c1nc[nH]c1C(=O)Nc1ccc(NC(=O)c2cc(F)c(F)cc2C)cc1 [Example 377, N^5-{4-[(4,5-difluoro-2-methylbenzoyl)amino]phenyl}-N^4-methyl-1H-imidazole-4,5-dicarboxamide]
0.15 µM | 0.8 µM | O=C(Nc1ccc(NC(=O)c2[nH]cnc2C(=O)NCCc2ccccn2)cc1)c1ccc(F)cc1Cl [Example 387, N^5-{4-[(2-chloro-4-fluorobenzoyl)amino]phenyl}-N^4-[2-(pyridin-2-yl)ethyl]-1H-imidazole-4,5-dicarboxamide]
0.1 µM | 0.26 µM | CNC(=O)c1nc[nH]c1C(=O)Nc1ccc(NC(=O)c2cc(F)ccc2Cl)cc1 [Example 361, N^5-{4-[(2-chloro-5-fluorobenzoyl)amino]phenyl}-N^4-methyl-1H-imidazole-4,5-dicarboxamide]
0.03 µM | 0.86 µM | CNC(=O)c1nc[nH]c1C(=O)Nc1ccc(NC(=O)c2ccc(Br)cc2Cl)cc1 [Example 334, N^5-{4-[(4-bromo-2-chlorobenzoyl)amino]phenyl}-N^4-methyl-1H-imidazole-4,5-dicarboxamide]
0.02 µM | 0.08 µM | O=C(Nc1ccc(NC(=O)c2nc[nH]c2C(=O)NCCN2CCCCC2)cc1)c1ccccc1Cl [Example 381, N^4-{4-[(2-chlorobenzoyl)amino]phenyl}-N^5-[2-(piperidin-1-yl)ethyl]-1H-imidazole-4,5-dicarboxamide]
